According to patent publication US20240101552A1, “CARBONYL HETEROCYCLIC COMPOUND AND APPLICATION THEREOF” (SHANGHAI PHARMACEUTICALS HOLDING CO., LTD., priority 2020, published 2024):

Target: LANCL2 (Homo sapiens (Human), UniProt Q9NS86)
Experiment: SPR (BIACORE S200) kinetic determination of LANCL2-small molecule interactions
Type: binding
Conditions: for Kd: immobilized LANCL2, 1:1 binding model, pH 6.5, 25° C.; for Rmax (RU): maximum binding force
Experimental: 1.1 Reagent Materials • Ligand: LANCL2 • Running buffer: 20 mM MES, 150 mM NaCl, 0.05% P20, pH 6.5, 1% DMSO
Injection conditions for small molecule compounds: a flow rate of 30 μL/min, a binding time of 60 s, a dissociation time of 300 s.
Running buffer: 20 mM MES, 150 mM NaCl, 0.05% P20, pH 6.5, 1% DMSO.
Sample chamber temperature: 25° C.; analysis temperature: 25° C.
Kinetic determination of LANCL2-small molecule interactions was performed. The kinetic parameters of small molecules BT-11 and L-1 to 60 (analytes) binding to LANCL2 (ligand) were determined using BIACORE S200. Data were generated in triplicate in a dose-dependent manner (5-8 titration points) and analyzed to determine binding models (Langmuir, conformational shifts, etc.), real-time association and dissociation constants, and equilibrium dissociation constants. SPR technology allows the validation of specific LANCL2-phytochemical interactions as well as an increased insight into the gold standard of binding mechanisms and rates. Experiments were performed on carboxymethyl polydextrose (CM5) sensor chips by amine-coupled covalent attachment of LANCL2. Data were analyzed with BIACORE S200T200 evaluation software (version 1), so as to determine affinity binding constants (KD) using a 1:1 binding model.
An optical technique for detecting molecular interactions, SPR, was used to measure the binding affinity between LANCL2 and a ligand thereof (compound to be tested). Purified recombinant LANCL2 protein was immobilized on a BIACORE sensor chip and small molecules were injected onto the protein surface using an equipment of microfluidic system. The change in total mass on the chip surface, corresponding to a small binding to the protein, was measured. […] The equilibrium dissociation constant (Kd) was often used to describe the affinity between a ligand and a protein, such as affinity degree of a ligand binding to a specific protein. Ligand-protein affinity was affected by non-covalent intermolecular interactions between two molecules, such as hydrogen bonding, electrostatic interactions, hydrophobic bonds and van der Waals forces. The steady-state affinity (Kd) for each interaction could be measured by plotting equilibrium binding levels against compound concentrations.

Chain of LANCL2 (Q9NS86 whole entry, species assumed): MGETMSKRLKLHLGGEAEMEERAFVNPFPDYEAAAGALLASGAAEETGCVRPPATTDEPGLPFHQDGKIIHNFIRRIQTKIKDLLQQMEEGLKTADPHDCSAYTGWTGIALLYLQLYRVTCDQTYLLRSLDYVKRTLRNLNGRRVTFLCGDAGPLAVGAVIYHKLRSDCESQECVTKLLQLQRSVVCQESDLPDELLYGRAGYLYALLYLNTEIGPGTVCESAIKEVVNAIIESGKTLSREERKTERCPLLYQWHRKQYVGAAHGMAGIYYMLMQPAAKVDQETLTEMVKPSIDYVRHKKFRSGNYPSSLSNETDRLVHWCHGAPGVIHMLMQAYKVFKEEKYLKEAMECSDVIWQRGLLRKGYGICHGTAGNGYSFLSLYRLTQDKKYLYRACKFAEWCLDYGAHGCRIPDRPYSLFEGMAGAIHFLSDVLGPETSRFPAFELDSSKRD

Compound	Kd [µM]	Rmax (RU)	binding activity compared with positive reference compound BT-11
O=C(NC1CCN(C(=O)c2cccc(-c3nc4ccccc4[nH]3)n2)CC1)C1CCCC(c2nc3ccccc3[nH]2)C1 [Embodiment L-20]	43.3	5.3	
O=C(c1cccc(Nc2ccccc2)n1)N1CCC2(CCN(C(=O)c3cccc(-c4nc5ccccc5[nH]4)n3)C2)C1 [Embodiment L-65, (7-(6-(1H-benzo[d]imidazol-2-yl)picolinoyl)-2,7-diazaspiro[4.4]non-2-yl)(6-(phenylamino)pyridin-2-yl)methanone]	26	6.5	
O=C(c1cccc(-c2nc3ccccc3[nH]2)n1)N1CCC2(CCCN(C(=O)c3cccc(-c4nc5ccccc5[nH]4)n3)C2)CC1 [Embodiment L-58, (2,9-diazaspiro[5.5]undecane-2,9-diyl)bis(6-(1H-benzo[d]imidazol-2-yl)pyridin-2-yl)methanone]	21.5	3.3	
Cc1ccncc1C(=O)N1CC2CN(C(=O)c3cccc(-c4nc5ccccc5[nH]4)n3)CC2C1 [Embodiment L-123, (5-(6-(1Hbenzo[d]imidazol-2-yl)picolinoyl)hexahydropyrrolo[3,4-c]pyrrol-2(1H)-yl)(4-methylpyridin-3-yl)methanone]	18.3	3.9	
O=C(c1cccc(-c2nc3ccccc3[nH]2)n1)N1CC2CN(C(=O)c3ccc4ccccc4n3)CC2C1 [Embodiment L-69, (5-(6-(1H-benzo[d]imidazol-2-yl)picolinoyl)hexahydropyrrolo[3,4-c]pyrrol-2(1H)-yl)(quinolin-2-yl)methanone]	21.7	6.1	
Cc1cn(-c2cccc(C(=O)N3CC4C(C3)C4NC(=O)c3cccc(-c4nc5ccccc5[nH]4)n3)c2)cn1 [Embodiment L-93, 6-(1H-benzo[d]imidazol-2-yl)-N-(3-(3-(4-methyl-1H-imidazol-1-yl)benzoyl)-3-azabicyclo[3.1.0]hexane-6-yl)picolinamide]	5.84	8	
O=C(c1cccc(-c2nc3ccccc3[nH]2)n1)N1CCC2(CCN(C(=O)c3nccc(Nc4ccccc4)n3)C2)C1 [Embodiment L-66, (7-(6-(1H-benzo[d]imidazol-2-yl)picolinoyl)-2,7-diazaspiro[4.4]non-2-yl)(4-(phenylamino)pyrimidin-2-yl)methanone]	31.8	7.2	
Cc1ccc(C(=O)N2CC3C(C2)C3NC(=O)c2cccc(-c3nc4ccccc4[nH]3)n2)cc1NC1=CC(=O)c2ccccc2C1=O [Embodiment L-91]	1.71	5.2	
NC(=O)c1sccc1NC(=O)c1ccc(C(=O)N2CCC3(CC2)CCN(C(=O)c2cccc(-c4cn5ccccc5n4)c2)CC3)cc1 [Embodiment L-96, 3-(4-(9-(3-(imidazo[1,2-a]pyridin-2-yl)benzoyl)-3,9-diazaspiro[5.5]undecane-3-carbonyl)benzamido)thiophene-2-carboxamide]	1.91	2.3	better binding activities than the positive reference compound BT-11
O=C(c1cccc(-c2nc3ccccc3[nH]2)n1)N1CC2CN(C(=O)c3ccnc(Nc4ccc(F)cc4)n3)CC2C1 [Embodiment L-82]	42.3	9.4	
O=C(c1cccc(-c2nc3ccccc3[nH]2)n1)N1CC2CN(C(=O)C3CCC(c4ccc(Cl)cc4)CC3)CC2C1 [Embodiment L-126, (5-(6-(1Hbenzo[d]imidazol-2-yl)picolinoyl)hexahydropyrrolo[3,4-c]pyrrol-2(1H)-yl)(4-(4-chlorophenyl)cyclohexyl)methanone]	40.5	3.3	
O=C(c1cccc(-c2cn3ccccc3n2)c1)N1CCC2(CC1)CCN(C(=O)c1cccc(Nc3ccccc3)n1)CC2 [Embodiment L-72, (9-(3-(imidazo[1,2-a]pyridin-2-yl)benzoyl)-3,9-diazaspiro[5.5]undecan-3-yl)(6-(phenylamino)pyridin-2-yl)methanone]	6.93	5.3	
O=C(c1cccc(-c2cn3ccccc3n2)c1)N1CC2CN(C(=O)c3cccc(-c4cn5ccccc5n4)c3)CC2C1 [Embodiment L-74, (tetrahydropyrrolo[3,4-c]pyrrole-2,5(1H,3H)-diyl)bis((3-(imidazo[1,2-a]pyridin-2-yl)phenyl)methanone)]	25.8	0.102	
O=C(c1ccc(F)c(Cl)c1)N1CC2CN(C(=O)c3cccc(-c4nc5ccccc5[nH]4)n3)CC2C1 [Embodiment L-124, (5-(6-(1Hbenzo[d]imidazol-2-yl)picolinoyl)hexahydropyrrolo[3,4-c]pyrrol-2(1H)-yl)(3-chloro-4-fluorophenyl)methanone]	8.79	4.8	
O=C(N[C@H]1[C@@H]2CN(C(=O)c3cccc(Nc4ccccc4)n3)C[C@@H]21)c1cccc(Nc2ccccc2)n1 [Embodiment L-101]	23.3	5.5	
O=C(N[C@H]1[C@@H]2CN(C(=O)c3sccc3-n3cccc3)C[C@@H]21)c1cccc(-c2cn3ccccc3n2)c1 [Embodiment L-104, N-((1R,5S,6s)-3-(3-(1H-pyrrol-1-yl)thiophene-2-carbonyl)-3-azabicyclo[3.1.0]hexan-6-yl)-3-(imidazo[1,2-a]pyridin-2-yl)benzamide]	12.5	9.7	
O=C(c1cccc(-c2nc3ccccc3[nH]2)n1)N1CCC2(CCCN(C(=O)c3ccnc(Nc4ccccc4)n3)C2)CC1 [Embodiment L-64, (9-(6-(1H-benzo[d]imidazol-2-yl)picolinoyl)-2,9-diazaspiro[5.5]undecan-2-yl)(2-(phenylamino)pyrimidin-4-yl)methanone]	48.8	6.1	
O=C(NC1CCN(C(=O)c2cccc(-c3nc4ccccc4[nH]3)n2)CC1)c1ccnc(Nc2ccccn2)n1 [Embodiment L-21]	9.88	7.3	
O=C(NC1CCN(C(=O)c2cccc(-c3cn4ccccc4n3)c2)CC1)c1ccnc(Nc2ccccc2)n1 [Embodiment L-42, N-(1-(3-(imidazo[1,2-a]pyridin-2-yl)benzoyl)piperidin-4-yl)-2-(phenylamino)pyrimidine-4-formamide]	13.2	12	
O=C(NC1CCN(C(=O)c2ccnc(Nc3ccccc3)n2)CC1)c1cccc(Nc2ccccc2)n1 [Embodiment L-81, 6-(phenylamino)-N-(1-(2-(phenylamino)pyrimidine-4-carbonyl)piperidin-4-yl)picolinamide]	23	10.5	
O=C(c1cccc(-c2nc3ccccc3[nH]2)n1)N1CCC(c2nc3ccccc3[nH]2)CC1 [Embodiment L-57, (4-(1H-benzo[d]imidazol-2-yl)piperidin-1-yl)(6-(1H-benzo[d]imidazol-2-yl)pyridin-2-yl)methanone]	8.02	8	
O=C(NC1C2CN(C(=O)c3cccc(-c4nc5ccccc5[nH]4)n3)CC21)c1ccnc(N2CCOCC2)n1 [Embodiment L-14, N-(3-(6-(1H-benzo[d]imidazol-2-yl)picolinoyl)-3-azabicyclo[3.1.0]hexan-6-yl)-2-morpholinopyrimidine-4-carboxamide]	21.1	7.1	
Cc1ccc(C(=O)N2CCC3(CCN(C(=O)c4cccc(-c5cn6ccccc6n5)c4)CC3)CC2)cc1NC1=CC(=O)c2ccccc2C1=O [Embodiment L-95, 2-((5-(9-(3-(imidazo[1,2-a]pyridin-2-yl)benzoyl)-3,9-diazaspiro[5.5]undecane-3-carbonyl)-2-methylphenyl)amino)naphthalene-1,4-dione]	2.09	5.2	better binding activities than the positive reference compound BT-11
O=C(NC1CCN(C(=O)c2cccc(-c3cn4ccccc4n3)c2)CC1)c1cccc(-c2cn3ccccc3n2)c1 [Embodiment L-88, 3-(imidazo[1,2-a]pyridin-2-yl)-N-(1-(3-(imidazo[1,2-a]pyridin-2-yl)benzoyl)piperidin-4-yl)benzamide]	16.4	9.7	
O=C(c1cccc(-c2cn3ccccc3n2)c1)N1CCC2(CC1)CCN(C(=O)c1cccc(-c3cn4ccccc4n3)c1)CC2 [Embodiment L-73, (3,9-diazaspiro[5.5]undecane-3,9-diyl)bis((3-(imidazo[1,2-a]pyridin-2-yl)phenyl)methanone)]	8.73	4.5	
O=C(NC1C2CN(C(=O)c3cccc(-c4nc5ccccc5[nH]4)n3)CC21)c1cccc(Nc2ccccn2)n1 [Embodiment L-52, N-(3-(6-(1H-benzo[d]imidazol-2-yl)picolinoyl)-3-azabicyclo[3.1.0]hexan-6-yl)-6-(pyridin-2-ylamino)picolinamide]	2.83	3.9	better binding activities than the positive reference compound BT-11
